The target of assay [1] is T1, human DNA topoisomerase IIα (Homo sapiens, UniProt P11388).
T1 construct: gene TOP2A
The experiment in a line: topo IIα-mediated kDNA decatenation and supercoiled pBR322 relaxation gel assays; HTS relaxation assay; cleavage assay (not a poison). In kind it is biochemical.

The target in assay [2] is T1, human DNA topoisomerase IIα. Put plainly: topo IIα cleavage assay (linear plasmid accumulation), HTS relaxation and decatenation assays. Format: biochemical.

T1 sequence (P11388 whole entry): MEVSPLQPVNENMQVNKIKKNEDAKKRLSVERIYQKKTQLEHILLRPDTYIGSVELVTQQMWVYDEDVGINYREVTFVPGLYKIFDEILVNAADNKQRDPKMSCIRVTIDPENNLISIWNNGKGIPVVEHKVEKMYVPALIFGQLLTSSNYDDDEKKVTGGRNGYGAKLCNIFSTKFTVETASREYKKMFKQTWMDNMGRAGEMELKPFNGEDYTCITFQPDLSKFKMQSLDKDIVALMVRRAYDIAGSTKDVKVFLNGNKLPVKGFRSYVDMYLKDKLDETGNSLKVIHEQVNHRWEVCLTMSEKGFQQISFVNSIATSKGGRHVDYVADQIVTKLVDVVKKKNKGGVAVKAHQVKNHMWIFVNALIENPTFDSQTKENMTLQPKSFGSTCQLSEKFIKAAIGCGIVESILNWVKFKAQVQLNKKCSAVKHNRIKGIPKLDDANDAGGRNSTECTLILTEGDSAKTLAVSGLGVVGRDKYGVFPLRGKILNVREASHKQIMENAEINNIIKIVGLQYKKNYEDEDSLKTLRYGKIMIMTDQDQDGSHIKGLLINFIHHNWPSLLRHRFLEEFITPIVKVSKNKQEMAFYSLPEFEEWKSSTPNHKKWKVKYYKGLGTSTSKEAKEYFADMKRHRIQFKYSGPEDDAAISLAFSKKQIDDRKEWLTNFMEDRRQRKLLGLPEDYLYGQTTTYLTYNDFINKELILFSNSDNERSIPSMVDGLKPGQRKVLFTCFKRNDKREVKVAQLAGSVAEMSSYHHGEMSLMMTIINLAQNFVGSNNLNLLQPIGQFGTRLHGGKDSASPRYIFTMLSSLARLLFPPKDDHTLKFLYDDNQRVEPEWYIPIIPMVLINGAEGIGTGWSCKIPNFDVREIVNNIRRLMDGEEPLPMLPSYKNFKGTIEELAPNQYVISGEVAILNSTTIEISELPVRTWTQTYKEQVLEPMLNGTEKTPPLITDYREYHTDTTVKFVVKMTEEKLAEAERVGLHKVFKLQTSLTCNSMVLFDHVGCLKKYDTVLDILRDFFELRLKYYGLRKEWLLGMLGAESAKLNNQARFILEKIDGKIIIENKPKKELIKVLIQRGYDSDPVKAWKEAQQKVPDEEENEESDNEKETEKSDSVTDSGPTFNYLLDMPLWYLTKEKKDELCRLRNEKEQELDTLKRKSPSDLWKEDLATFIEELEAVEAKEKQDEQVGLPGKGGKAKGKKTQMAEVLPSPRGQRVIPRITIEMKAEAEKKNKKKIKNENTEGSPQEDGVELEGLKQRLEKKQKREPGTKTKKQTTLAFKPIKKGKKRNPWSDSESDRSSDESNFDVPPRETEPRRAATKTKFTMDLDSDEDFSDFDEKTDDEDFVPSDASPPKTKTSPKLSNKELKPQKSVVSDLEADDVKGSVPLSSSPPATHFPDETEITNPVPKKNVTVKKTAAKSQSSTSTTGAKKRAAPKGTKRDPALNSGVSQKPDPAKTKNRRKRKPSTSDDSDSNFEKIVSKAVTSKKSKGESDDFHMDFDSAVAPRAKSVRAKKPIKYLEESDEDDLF

Broadly, the inhibition is the change of the read-out against control, counted positive when it falls. High values mean a strong effect, low ones a weak effect. For the compound `Oc1ccccc1C=NNC(=S)NN=Cc1ccccc1O` [compound 2, 1,5-bis(salicylidene)thiocarbohydrazide], 50 µM produced 56% inhibition in assay [1]. For `COc1cc([C@@H]2c3cc4c(cc3[C@@H](O[C@@H]3O[C@@H]5CO[C@@H](C)O[C@H]5[C@H](O)[C@H]3O)[C@H]3COC(=O)[C@H]23)OCO4)cc(OC)c1O` [etoposide], in assay [2], 50 µM produced 70% inhibition.

Values taken from publication PMC10054454, “Phenotypic Discovery of Thiocarbohydrazone with Anticancer Properties and Catalytic Inhibition of Human DNA Topoisomerase IIα” (Pharmaceuticals, 2023).
